In article PMC5681660, “Reduced hepatitis B and D viral entry using clinically applied drugs as novel inhibitors of the bile acid transporter NTCP” (Scientific Reports, 2017):
Counter-ions that a name gives are not always drawn. Like-named read-outs stand apart in the source and are kept apart here. Non-standard residues stand in square brackets, D forms with d. Residues, ends and D or L forms follow the SMILES beside them. *: point of attachment. Sta = CC(C)C[C@H](N)[C@@H](O)CC(=O)O; Isovaleryl = CC(C)CC(=O)*

Tests used:
human NTCP [1] = target: T1, human NTCP (Homo sapiens, UniProt Q14973); assay: Screening fluorescent competitive Myrcludex B-FITC binding assay (96-well, 10 µM drug)
T1 sequence (Q14973 1-349): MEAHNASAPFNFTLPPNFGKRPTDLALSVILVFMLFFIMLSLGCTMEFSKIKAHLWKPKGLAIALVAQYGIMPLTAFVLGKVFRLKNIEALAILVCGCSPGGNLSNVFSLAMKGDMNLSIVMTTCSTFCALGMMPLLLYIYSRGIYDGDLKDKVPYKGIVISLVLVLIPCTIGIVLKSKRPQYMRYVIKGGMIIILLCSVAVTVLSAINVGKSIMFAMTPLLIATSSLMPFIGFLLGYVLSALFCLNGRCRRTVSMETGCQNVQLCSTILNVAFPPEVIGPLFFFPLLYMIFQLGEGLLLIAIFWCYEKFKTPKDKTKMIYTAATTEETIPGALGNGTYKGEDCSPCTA

human NTCP [2] = target: T1, human NTCP; assay: Screening taurocholate uptake assay (96-well, [14C]taurocholate, 10 µM drug)
[3] = Prestwick library screen, Myrcludex B-FITC binding, 10 µM drug
[4] = Prestwick library screen, taurocholate uptake, 10 µM drug
[5] = ranking score beside the functional and binding assay B-scores of the screen
[6] = screen, 10 µM drug, Myrcludex B-FITC binding
[7] = combined ranking from functional and binding screening assays
[8] = screen, 10 µM drug, taurocholate uptake
[9] = Prestwick library screen, 10 µM drug, B-score of Myrcludex B-FITC binding
[10] = Prestwick library screen, 10 µM drug, B-score of taurocholate uptake
[11] = combined ranking from functional and binding assay B-scores

Compound | B-score binding assay (human NTCP [1]; [3]) | B-score functional assay (human NTCP [2]; [4]) | Ranking score (human NTCP [2]; [5]) | B-score binding assay (human NTCP [1]; [6]) | Ranking score (human NTCP [2]; [7]) | B-score functional assay (human NTCP [2]; [8]) | B-score binding assay (human NTCP [1]; [9]) | B-score functional assay (human NTCP [2]; [10]) | Ranking score (human NTCP [2]; [11]) | further results
Cn1c(=O)c2c(ncn2CCO)n(C)c1=O [Etofylline] | 0.258 | 0.319 | 831.39 |  |  |  |  |  |  | 
COc1cc(C)c(/C=C/C(C)=C/C=C/C(C)=C/C(=O)O)c(C)c1C [Acitretin] |  |  |  | -1.766 | 302.82 | 0.046 |  |  |  | 
CC1(C)[C@H](C(=O)O)N2C(=O)C[C@H]2S1(=O)=O [Sulbactam] |  |  |  | -1.629 | 399.332 | 1.339 |  |  |  | 
CC(C)CC(=O)N[C@H](C(=O)N[C@H](C(=O)N[C@@H](CC(C)C)[C@@H](O)CC(=O)N[C@@H](C)C(=O)N[C@@H](CC(C)C)[C@@H](O)CC(=O)O)C(C)C)C(C)C [Pepstatin A] (Isovaleryl-VV[Sta]A[Sta]-OH) | -0.237 | 2.688 | 763.991 |  |  |  |  |  |  | 
CC(C)(C)C(=O)OCOC(=O)[C@@H]1N2C(=O)[C@@H](/N=C/N3CCCCCC3)[C@H]2SC1(C)C [Pivmecillinam hydrochloride] | 0.838 | -0.103 | 729.338 |  |  |  |  |  |  | 
CN1C(=O)CC(c2ccccc2)C1=O (stereo not drawn) [Phensuximide] |  |  |  | -1.044 | 401.836 | 0.043 |  |  |  | 
CC(=O)O[C@]1(C(C)=O)CC[C@H]2[C@@H]3C=C(C)C4=CC(=O)CC[C@@H]4[C@H]3CC[C@@]21C [Nomegestrol acetate] |  |  |  | 1.174 | 298.149 | -2.71 |  |  |  | 
CCCCC[C@H](O)/C=C/[C@H]1[C@H](O)CC(=O)[C@@H]1CCCCCCC(=O)O [Alprostadil] | 0.02 | 0.966 | 841.475 |  |  |  |  |  |  | 
CC(C)NCC(O)c1ccc(NS(C)(=O)=O)cc1 (stereo not drawn) [Sotalol hydrochloride] |  |  |  |  |  |  | 0.649 | 0.17 | 866.77 | 
CCCN[C@H]1CCc2nc(N)sc2C1 [Pramipexole dihydrochloride] |  |  |  | -0.164 | 303.528 | -1.48 |  |  |  | 
CC(CN1c2ccccc2Sc2ccccc21)N(C)C (stereo not drawn) [Promethazine hydrochloride] |  |  |  |  |  |  | 1.811 | -0.002 | 866.133 | 
CC(=O)N[C@@H](CC(=O)N[C@@H](CCC(=O)O)C(=O)O)C(=O)O [Spaglumic acid] |  |  |  | -0.793 | 411.514 | -0.043 |  |  |  | 
CCN(CC)CCOCCOC(=O)C1(c2ccccc2)CCCC1 [Carbetapentane citrate] |  |  |  |  |  |  | 1.7 | 0.114 | 943.43 | 
CC(=O)Nc1ccc(CC(=O)O)cc1 [Actarit] | 1.648 | -0.304 | 719.277 |  |  |  |  |  |  | 
O=P1(N(CCCl)CCCl)NCCCO1 (stereo not drawn) [Cyclophosphamide] |  |  |  |  |  |  |  |  |  | B-score binding assay (human NTCP [1]): 1.227; B-score functional assay (human NTCP [2]): 0.493; Ranking score (human NTCP [2]): 990.921
Nc1cc(C(Cl)=C(Cl)Cl)c(S(N)(=O)=O)cc1S(N)(=O)=O [Clorsulon] | -0.388 | 0.953 | 659.111 |  |  |  |  |  |  | 
CCSc1ccc2c(c1)N(CCCN1CCN(C)CC1)c1ccccc1S2.O=C(O)CC(O)C(=O)O.O=C(O)CC(O)C(=O)O [Thiethylperazine dimalate] |  |  |  |  |  |  | 3.252 | 0.623 | 1093.79 | 
NS(=O)(=O)Cc1noc2ccccc12 [Zonisamide] |  |  |  |  |  |  | 0.365 | 3.016 | 1038.21 | 

Compound | B-score binding assay (human NTCP [1]; [3]) | B-score functional assay (human NTCP [2]; [4]) | Ranking score (human NTCP [2]; [5]) | B-score binding assay (human NTCP [1]; [6]) | Ranking score (human NTCP [2]; [7]) | B-score functional assay (human NTCP [2]; [8]) | B-score binding assay (human NTCP [1]; [9]) | B-score functional assay (human NTCP [2]; [10]) | Ranking score (human NTCP [2]; [11]) | further results
C[C@]12C=CC(=O)C=C1CC[C@H]1[C@@H]3C[C@@H](O)[C@](O)(C(=O)CO)[C@@]3(C)C[C@H](O)[C@@]12F [Triamcinolone] | -0.283 | 1.923 | 735.139 |  |  |  |  |  |  | 
CC(C)(Oc1ccc(Cl)cc1)C(=O)O [Clofibric acid] |  |  |  |  |  |  | 0.048 | 1.224 | 881.708 | 
O=c1[nH]c(=O)n([C@H]2C[C@H](O)[C@@H](CO)O2)cc1C(F)(F)F [Trifluridine] |  |  |  |  |  |  | 2.847 | 0.173 | 994.589 | 
OCCOCCN1CCN(C(c2ccccc2)c2ccc(Cl)cc2)CC1 (stereo not drawn) [Hydroxyzine dihydrochloride] |  |  |  | -1.7 | 394.018 | 1.371 |  |  |  | 
CCCc1cc(=O)[nH]c(=S)[nH]1 [Propylthiouracil] | 0.14 | 0.437 | 823.744 |  |  |  |  |  |  | 
O=C(O)C(O)C(O)C(=O)O.O=C(c1ccc(F)cc1)C1CCN(CCn2c(=O)[nH]c3ccccc3c2=O)CC1 [Ketanserin tartrate hydrate] | -0.046 | 0.482 | 727.865 |  |  |  |  |  |  | 
Cc1ccc(C)c(OCCCC(C)(C)C(=O)O)c1 [Gemfibrozil] |  |  |  | -2.286 | 289.348 | 0.85 |  |  |  | 
COC(=O)N/N=C/c1c[n+]([O-])c2ccccc2[n+]1[O-] [Carbadox] |  |  |  |  |  |  | 0.674 | 0.663 | 963.5 | 
Cc1nnc(NS(=O)(=O)c2ccc(N)cc2)s1 [Sulfamethizole] |  |  |  |  |  |  | 0.555 | 1.973 | 1054.65 | 
CC(C)NCC(O)COc1cccc2[nH]ccc12 (stereo not drawn) [Pindolol] | 0.992 | -0.046 | 777.082 |  |  |  |  |  |  | 
C[C@]12C[C@H]3S[C@H]3C[C@@H]1CC[C@@H]1[C@@H]2CC[C@]2(C)[C@@H](O)CC[C@@H]12 [Epitiostanol] |  |  |  |  |  |  |  |  |  | B-score binding assay (human NTCP [1]): 0.911; B-score functional assay (human NTCP [2]): 0.926; Ranking score (human NTCP [2]): 1032.88
CCN[C@@H](C)Cc1cccc(C(F)(F)F)c1 [Dexfenfluramine hydrochloride] |  |  |  | -0.169 | 401.597 | -0.697 |  |  |  | 
CC(N/C(=N\C#N)Nc1ccncc1)C(C)(C)C (stereo not drawn) [Pinacidil] |  |  |  | -0.477 | 332.839 | -0.832 |  |  |  | 
CN(C)CCCN1c2ccccc2CCc2ccc(Cl)cc21 [Clomipramine hydrochloride] | -0.277 | 4.061 | 759.266 |  |  |  |  |  |  | 
CN1CCCC(n2nc(Cc3ccc(Cl)cc3)c3ccccc3c2=O)CC1 (stereo not drawn) [Azelastine HCl] |  |  |  |  |  |  | 0.157 | 1.435 | 940.553 | 
COc1ccc(C(Cl)=C(c2ccc(OC)cc2)c2ccc(OC)cc2)cc1 [Chlorotrianisene] |  |  |  |  |  |  | 1.19 | 0.481 | 983.616 | 
C=C1C[C@H]2[C@@H]3C=C(C)C4=CC(=O)CC[C@]4(C)[C@H]3CC[C@]2(C)[C@@]1(OC(C)=O)C(C)=O [Melengestrol acetate] |  |  |  | 1.224 | 323.966 | -2.447 |  |  |  | 
CCN(CC)C(=O)N1CCN(C)CC1 [Diethylcarbamazine citrate] | -0.121 | 0.671 | 718.594 |  |  |  |  |  |  | 
